[ ]: non-standard residue; d: D form. Abu = CC[C@H](N)C(=O)O; Ahx = NCCCCCC(=O)O
Key:
MDSC and macrophages = test: In vivo specificity of 4PD in CT26 bearing mice (multicolor flow cytometry of tumor, spleen, liver); parameters: species or system mouse; conditions: for Alexa555-shRNA accumulation in cell subsets: with cardiolipin
Protocol: Mice bearing the CT26 colon carcinoma (0.7 cm in diameter) were injected with Alexa555-siRNA loaded onto 4PD (black bar) or, as control, onto G5 PAMAM dendrimer functionalized with a random peptide. Two hours later, mice were sacrificed. Single cell suspensions from the spleen, the tumor and the liver were labeled with antibodies specific for Gr1, CD11b, F4/80, CD11c, CD3, CD4, and CD8 to identify granulocytic MDSC (gMDSC), monocytic MDSC (mMDSC), macrophages, dendritic cells, and helper and cytotoxic T cell. Fluorescence in the Alexa555 channel in each population was evaluated by FACSas a read out of 4PD mediated transfection.
In order to evaluate 4PD specificity in vivo, Balb/c mice bearing the CT26 colon carcinoma were injected intravenously with 20 ug of Alexa555-shRNA loaded into the 4PD platform with cardiolipin. Alexa 555-shRNA loaded dendrimer coupled with control peptide (a mixture of random peptides) were used as control. Cardiolipin was added to the complexes as described above (FIG. 3). Two hours after 4PD/Alexa555-shRNA systemic injection, mice were sacrificed and single cell suspension from the tumor, the spleen, and the liver was analyzed by multicolor flow cytometry (FIG. 10). In particular, cells were stained with CD11b, Gr1, CD11c and F4/80 specific antibodies to identify granulocytic− (g−) MDSCs (CD11bGr1high), monocytic− (m−) MDSCs (CD11b+GR1−), CD11b+Gr-1 negative myeloid cells, F4/80+macrophages, and CD11chigh DC. Additionally, cells were stained with antibodies specific for CD3, CD8, and CD4 to recognize T cell subsets.

CD11b+MDSC = test: Alexa555-shRNA transfection of CD11b+ MDSC from CT26 tumor bearing mice (FACS, fluorescence microscopy); type: cell-based, mouse; conditions: 15 minutes at 37° C., then 2 hours; FACS and fluorescence microscopy
Protocol: MDSC isolated from CT26 tumor bearing mice were transfected with: 1) Alexa555-siRNA alone (gray filled line in FIGS. 5A and 5B), 2) Alexa555-siRNA Dendrimer (black line, bottom panel, FIG. 5B) or 3) Alexa555-siRNA IL4Rα targeting dendrimer (black line, top panel, FIG. 5A). 45 minutes later cells were analyzed by immune-fluorescence microscopy (FIG. 5C) and by FACS (FIG. 5B) after gating on the alive (DAPI negative) cells.
(§1) Next, the ability of 4PD to bind to the native IL4Rα receptor expressed on a cell membrane was evaluated. To this aim, the capacity of 4PD to recognize CD11b+myeloid cells isolated from tumor bearing mice was evaluated. Briefly, CD11b+MDSC were magnetically isolated from the spleen of Balb/c mice challenged 2 weeks before with the CT26 colon carcinoma. Purified cells were incubated at 37° C. for 15 minutes with Alexa555-shRNA loaded onto 4PD or dendrimers conjugated with scramble peptide as negative control. After the incubation, cells were washed and incubated for an additional 2 hours at 37° C. in CTL media. Cells were harvested and analyzed by FACS (FIG. 5B) or by fluorescence microscopy (FIG. 5C) to determine Alexa-555-shRNA transfection. […] Similarly (FIG. 6B), Alexa555 fluorescence can be found only on CD33+IL4Rα+ MDSCs (black histogram) but not in other subsets as the IL4Rα-CD33+ myeloid cells (purple) or the non-myeloid (CD33-IL4Rα−) cells.

human MDSCs = test: Binding of 4PD/Alexa555-shRNA complexes to PBMCs from HNSCC patients by FACS; type: cell-based; conditions: 30 minutes at 4° C.
Protocol: Transfection was evaluated by FACS. In FIG. 6A, the red dot represent the cells transfected with the 4PD nanoparticles (i.e., CD33+IL4Rα+CD11b+CD14+HLADRlow monocytes/MDSC). FIG. 6B depicts the Alexa555 fluorescence in the indicated gates. In FIG. 6C, apparent Kd was calculated by incubating a fixed number of PBMCs with the indicated concentration of Alexa555shRNA/4PD complexes for 10 minutes at 4° C. and by evaluating the MFI in the relevant channel by FACS.
as §1, with “After the incubation, cells were washed and incubated for an additional 2 hours at 37° C. in CTL media.” left out, “cells. […]” for “cells.”

[1] = system: Bone marrow cells from C57Bl/6 mice; test: Transfection of early hematopoietic progenitor cells from bone marrow (flow cytometry); type: cell-based, mouse
Protocol: FIG. 24B provides histograms that how the binding of 4PD (open histogram) over the control (filled histogram). The dot blot on the right summarize the binding from ten independent assays.
Bone marrow cells from C57Bl/6 mice were incubated for 10 minutes with 4PD loaded with Alexafluor 555 washed, counterstained with anti-lineage cocktail, anti-CD45, anti-Sca1, anti ckit, anti-CD34, anti-CD16/CD32, anti-CD150 and anti-CD48 antibodies, and analyzed by flow cytometry.
Importantly, the viability of the cells after transfection was higher than 95%.

With “4PD: G5 PAMAM dendrimer conjugated by maleidoamide chemistry to the IL4Rα targeting peptide of SEQ ID NO: 1 (Ac-LQRLFRAFR[Abu]LD[Ahx]C-NH2; also: Cys14 joined by maleimidobenzoyl thioether to G5 PAMAM dendrimer)” the Alexa555-shRNA binding (MDSC and macrophages; non-myeloid leukocytes subsets, 2 hours after i.v. injection) was “Only non-specific level of binding was observed”, the “Alexa555-shRNA accumulation in cell subsets” value (MDSC and macrophages; spleen and liver, 2 hours after i.v. injection) was “accumulates mostly in F4/80+ tumor educated macrophages, and CD11b+GR1− myeloid cells” and the “Alexa555-shRNA accumulation in cell subsets” value (MDSC and macrophages; tumor, 2 hours after i.v. injection of 20 ug Alexa555-shRNA) was “accumulates mostly in the tumor associated gMDSCs, mMDSC, macrophages and CD11b+Gr1− myeloid cells”. For the same substance, the Alexa-555-shRNA transfection (CD11b+MDSC) was “can promote the internalization of Alexa-555 in the cells”, the “cells bound by 4PD among PBMCs” value (human MDSCs) was “binds preferentially to CD11b+CD14+CD33+IL4Rα+HLADRdim cells” and the transfection ([1]; HSC, HPC1, HPC2, MPP, CMP, GMP, 10 minutes incubation) was “able to efficiently transfect”. The “viability of the cells after transfection” value ([1]; bone marrow cells) was “higher than 95%” and the transfection ([1]; megakariocytes-erythrocyte precursors) was “at lower level”.
